Measurements taken from EP1007066B1, “SCREENING METHODS FOR GLUCOCORTICOID RECEPTOR BINDING SUBSTANCES USING TRYPTERYGIUM WILFORDII PREPARATIONS” (priority 1996, dated 1998).
Values after ≈ are worked out from the molar mass of the structure shown.

Key:
[1] = system: PHA-stimulated T cells; assay: Viability of PHA-stimulated T cells (924); assay type: cell-based
Description: A 924 fraction concentration of 1,000 ng/ml was only slightly more toxic to cell viability as compared to the 0 ng/ml dose (see FIG. 20D, 0 ng/ml = 22% of control; 1,000 ng/ml fraction 924 = […] of control cell viability).

[2] = system: IL-2; assay: PHA-induced IL-2 production (wilforonide, CTLL-2 readout); assay type: cell-based; settings: PHA 1 µg/ml, overnight
Description: The effects of wilforonide on IL-2 production was also examined. T cells were cultured with or without PHA(1 microgram/ml) in the presence or absence of 0 (control), 10 ng/ml, 50 ng/ml, 100 ng/ml or 200 ng/ml wilforonide overnight. Cell-free supernatants were diluted 1 to 80 and the IL-2 content assayed with CTLL-2 cells.

[3] = system: T cells; assay: Antigen (SK)-induced T cell proliferation (wilforonide); assay type: cell-based
Description: T cells were cultured with or without SK (1 ng/ml) or SK + IL-2 (50 u/ml) or SK + PMA (0.2 ng/ml) in the presence or absence of the following concentrations of wilforonide: 10 ng/ml, 50 ng/ml, 100 ng/ml, 500 ng/ml or 1,000 ng/ml. The cells were allowed to culture for five days. The cultures were pulsed with [^3H]-thymidine for the last 24 hours of culture. […] ID50 were calculated based on the regression formula by using the fx-3600 calculator. T cells cultured with SK or SK + IL-2 or SK + PMA gave cpm of 1.87 x 10^3, 4.99 x 10^3 and 6.67 x 10^3, respectively.

[4] = system: PHA-stimulated T cells; assay: PHA-induced T cell proliferation (924 / wilforonide); assay type: cell-based; settings: PHA 0.5 µg/ml, 3 days
From the text: The molecular groups responsible for the immune suppressive function of these compounds are unknown, however, the core structure of diterpenoids which may be related to their activity consists of an α-β-unsaturated 5 element lactone which can be identified by Kedde reagents. HPLC was used to fractionate the ethyl acetate extract of TwHF and the Kedde reagents were employed to trace the fractions. Then, the effect of selected fractions on the in vitro IL-2 production and [^3H]-thymidine incorporation by PHA-activated T cells was determined. Fractions that inhibit these T cell functions were selected and the chromatographic pattern was identified with HPLC. One fraction was further purified with HPLC and crystallized repeatedly; a pure, crystallized compound was obtained and designated "924".
[^3H]-thymidine was added for the last 14 hours of culture. Each concentration was run in quadruplicate (4 times) and the results for each concentration averaged to provide a mean. The mean cpm x 10^3 values were combined and expressed as a percent of T cell inhibition.

[5] = system: IL-2R; assay: IL-2R expression by PHA-activated T cells (924); assay type: cell-based; settings: 500 ng/ml
From the text: There was no effect of "924" on IL-2R expression by PHA-activated T cells.

[6] = Solubility of 924; assay type: physicochemical; settings: ethanol and chloroform
Description: The dried woody skinned part of the root of TwHF was extracted with ethanol. The solution was concentrated at reduced pressure, and the residue was dissolved in ethyl acetate. This solution was passed through Al2O3 with ethanol as an eluent. The eluate was evaporated and the residue chromatographed on silica gel with chloroform, chloroform-ether and ethyl acetate as successive eluent. The fractions eluted with chloroform-ether were purified on a preparative HPLC column packed with Nova-Pak C18 and equipped with a 214 detector. Methanol-water was the mobile phase. A fraction having positive reaction to Kedde reagent was collected and extracted with chloroform. The chloroform solution was evaporated to dryness and the residue crystallized in dichloromethane-hexane to yield 924.

[7] = system: IDH4 cells; assay: Dexamethasone dependent growth of IDH4 cells (3H-thymidine); assay type: cell-based, human; settings: for [3H]-thymidine incorporation of IDH4 cells: without stimulation 16,391; for dexamethasone dependent growth of IDH4 cells: 72 hours
Description: IDH4 cells, that express endogenous glucocorticoid receptors, were produced by transfecting human fibroblasts with a plasmid containing the MMTV-long terminal repeat driving the SV40 large T antigen. Since extended growth of these cells is dependent on expression of the large T antigen, these cells require exogenous glucocorticoid to maintain proliferation.
[^3H]-Thymidine was present for the last 16 h. Data represent the mean % inhibition of [^3H]-thymidine incorporation of three replicate determinations of three separate experiments.

[8] = target: T1, human GR (Homo sapiens, UniProt P04150); assay: GR mediated gene activation, MMTV-luciferase in COS-7 cells, with dexamethasone; assay type: cell-based; settings: for GR-mediated activation of target gene (MMTV-luciferase): dexamethasone-induced
T1 construct: host or cells: COS-7
T1 sequence (P04150 1-777): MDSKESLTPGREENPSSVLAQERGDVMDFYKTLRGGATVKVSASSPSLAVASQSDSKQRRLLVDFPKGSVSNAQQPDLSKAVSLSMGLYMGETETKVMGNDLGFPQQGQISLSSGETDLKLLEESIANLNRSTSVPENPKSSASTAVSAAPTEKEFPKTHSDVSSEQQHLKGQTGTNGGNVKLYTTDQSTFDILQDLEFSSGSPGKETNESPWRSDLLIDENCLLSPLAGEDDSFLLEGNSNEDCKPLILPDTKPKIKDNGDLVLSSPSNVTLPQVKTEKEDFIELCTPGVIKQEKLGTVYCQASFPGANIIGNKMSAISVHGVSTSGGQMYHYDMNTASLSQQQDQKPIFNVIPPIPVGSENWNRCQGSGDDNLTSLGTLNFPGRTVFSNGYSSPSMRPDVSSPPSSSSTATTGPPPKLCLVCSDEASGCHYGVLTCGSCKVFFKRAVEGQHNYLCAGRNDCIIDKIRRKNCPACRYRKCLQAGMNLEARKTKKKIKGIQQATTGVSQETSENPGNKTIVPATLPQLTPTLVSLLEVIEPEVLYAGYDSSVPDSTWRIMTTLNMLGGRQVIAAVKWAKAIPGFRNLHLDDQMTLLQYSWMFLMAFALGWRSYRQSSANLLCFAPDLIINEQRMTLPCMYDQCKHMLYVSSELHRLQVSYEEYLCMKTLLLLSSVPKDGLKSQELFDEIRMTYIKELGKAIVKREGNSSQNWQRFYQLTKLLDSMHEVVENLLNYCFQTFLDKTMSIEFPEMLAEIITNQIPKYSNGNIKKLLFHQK
Description: Cell transfections and assays of GR mediated gene activation. COS-7 cells were maintained in culture in DMEM-10% bovine calf serum. […] Cells were plated at 10^6 cells per 10 cm plate. Twenty-four hours later, the cells were transfected with 500 ng pRShGrα, a GR expression vector (obtained from the Salk Institute, La Jolla, CA) and 10 µg of pMMTV-luciferase, a synthetic reporter gene. However, other expression vectors and synthetic reporter genes available to those of skill in the art may be used for transfection. The vector pMMTV-luciferase contains the luciferase gene under regulatory control of glucocorticoid-inducible elements in the MMTV-long terminal repeat. Cells were transfected using the calcium-phosphate precipitation technique (mammalian transfection kit, Stratagene, La Jolla, CA). […] Twenty-four hours later, the cells were washed, harvested, and lysates prepared by three cycles of freeze/thawing. The lysates were cleared by centrifugation at 12,000 x g for 5 minutes; aliquots were assayed for protein content and equal amounts of proteins were used for luciferase assays.
COS-7 cells were transfected with a human GR expression vector and the MMTV-luciferase reporter gene construct. A parallel set of plates was transfected with the constitutively active RSV-luciferase construct. […] Cells were lysed after 24 hours and assayed for luciferase activity.

[9] = system: U937 cells; assay: PGE2 production by LPS-activated U937 cells; assay type: cell-based, human
From the text: This reflected marked suppression of the induction ofmRNA for cycloxygenase -2 (COX-2). […] This may contribute to its capacity to suppress autoimmune and inflammatory diseases.

[10] = system: cyclooxygenase 2 (COX-2); assay: LPS (endotoxin) induced PGE2 production by monocytes; assay type: cell-based, human; settings: LPS 10 µg/ml, 18 hours
Description: After 18 hours of incubation, cell-free supernatants were collected and assayed for PGE2 content with a radioimmunoassay kit (Amersham), as described by the manufacturer. […] Human monocytes produce prostaglandinE2 (PGE2) when stimulated with bacterial endotoxin.

[11] = in vitro; assay type: cell-based
Description: The cells were assayed for cell viability by using a cytoflowmeter (FACSCAN) after the cells were stained with propidium iodine. […]

## C[C@]12CCC3=C(COC3=O)[C@@H]1CCC(=O)C2 (relative stereo) [wilforonide, naphtho-[1,2-c] furan-3,7(1H,5H)-dione, 4,5a,6,8,9,9a-hexahydro-5a-methyl-(5aR-trans)-]
[1]; 1 ng/ml up to 1000 ng/ml
  viability of PHA-stimulated T cells: did not affect
[1]; 1,000 ng/ml
  cell viability: 35 % of control
[2]
  ID50, PHA-induced IL-2 production: 0.04211 mg/L (≈ 0.191 µM)
[3]; SK
  ID50, antigen-induced T cell proliferation: 0.12712 mg/L (≈ 0.577 µM)
[3]; SK+IL-2
  ID50, antigen-induced T cell proliferation: 0.476 mg/L (≈ 2.16 µM)
[3]; SK+PMA
  ID50, antigen-induced T cell proliferation: 0.613 mg/L (≈ 2.78 µM)
[4]
  ID50, PHA-induced T cell proliferation: 0.3913 mg/L (≈ 1.78 µM)
[4]; Wilforonide 50 ng/ml
  cpm x 10^3 (experiments 1.-4.): 57.0 cpm x 10^3
[5]
  IL-2R expression by PHA-activated T cells: did not affect
[6]
  solubility: soluble

## C[C@@H]1C[C@H]2[C@@H]3CCC4=CC(=O)C=C[C@]4(C)[C@@]3(F)[C@@H](O)C[C@]2(C)[C@@]1(O)C(=O)CO [dexamethasone]
[7]; dexamethasone 1 nM
  [3H]-thymidine incorporation of IDH4 cells: 35,554 cpm
[7]; dexamethasone 10 nM
  [3H]-thymidine incorporation of IDH4 cells: 52,937 cpm
[7]; dexamethasone 100 nM
  [3H]-thymidine incorporation of IDH4 cells: 105,357 cpm
[7]; dexamethasone 1,000 nM
  [3H]-thymidine incorporation of IDH4 cells: 96,677 cpm

## CC(C)[C@]12O[C@H]1[C@@H]1O[C@]13[C@]1(O[C@H]1C[C@H]1C4=C(C(=O)OC4)[C@@H](O)C[C@@]13C)[C@@H]2O [tripdiolide]
[8]
  GR-mediated activation of target gene (MMTV-luciferase): inhibited
[7]
  dexamethasone dependent growth of IDH4 cells: inhibited
[9]
  PGE2 production by LPS-activated U937 cells that do not express COX-2: had effect
[10]
  LPS / endotoxin induced PGE2 production by monocytes: inhibited

## CC(C)[C@]12O[C@H]1[C@@H]1O[C@]13[C@]1(O[C@H]1C[C@H]1C4=C(CC[C@@]13C)C(=O)OC4)[C@@H]2O [triptolide]
[8]; compared with GR ligand binding inhibition
  more potent at inhibition of MMTV-luciferase induction than at binding inhibition: more than an order of magnitude
[8]
  GR-mediated activation of target gene (MMTV-luciferase): inhibited
[11]
  viability at 72 hr, 0.1 ng/ml: 91.7%
  viability at 72 hr, 10 ng/ml: 35.8%

## CC(C)c1ccc2c(c1O)CC[C@H]1C3=C(CC[C@]21C)C(=O)OC3 [triptophenolide]
[8]
  GR-mediated activation of target gene (MMTV-luciferase): far less potent
[7]
  dexamethasone dependent growth of IDH4 cells: less active
